Test results: paper PMC10439952, “JT002, a small molecule inhibitor of the NLRP3 inflammasome for the treatment of autoinflammatory disorders” (Scientific Reports, 2023)

Tested on: pyroptosis of mouse BMDMs
Test: Inhibition of pyroptotic cell death measured by cellular ATP content (CellTiter-Glo viability) in LPS + nigericin stimulated mouse BMDMs
Type: cell-based
Details: Mouse BMDM, read-out: Geo Av IC50, Viability (pyroptosis, cellular ATP content)
Protocol: Cell viability was determined by addition of an equal volume of CellTiter-Glo® 2.0 reagent (Promega) to the remaining cells/supernatant in each well. Intracellular Caspase-1 activity was measured using the Caspase-Glo® assay (Promega) according to the manufacturer’s instructions. The biochemical capsase-1 assay was conducted at Reaction Biology Corporation (Malvern, USA). Human IL-1β, IL-1α, and TNFα and mouse IL-1β were measured in cell culture supernatants using homogeneous time resolved fluorescence assay kits (HTRF, Cisbio, Codolet, France). Human IL-18 was measured in cell culture supernatants using an ELISA kit (R&D Systems, Minneapolis, MN, USA). Plasma IL-1β concentrations were determined by Quantikine® ELISA (R&D Systems, Minneapolis, MN).
4H). MS: m/z 433.1 (M+H+).
Inflammasome activation.PBMCs (iXCells Biotechnologies, San Diego, USA) were thawed the day before the assay and seeded in complete medium (RPMI 1640 medium with GlutaMAX, supplemented with an additional 2.5 g/L D-glucose, 10% Fet al Bovine Serum, 100 mM Sodium Pyruvate, 1% Penicillin/Streptomycin, 10 mM HEPES and 0.05 mM β -mercaptoethanol) in polystyrene V-bottom 96-well plates at 5x10^4 cells per well and incubated overnight at 37°C with 5% CO 2. The next day, PBMC media was r eplaced with serum-fr ee media p rior t o the assay. […]

Molecule `CO[C@@H]1COc2c(S(=O)(=O)NC(=O)Nc3c4c(cc5c3CCC5)CCC4)cnn2C1` [JT002] has an IC50 of 7 nM.
